± gives the expanded uncertainty stated by the source.
Test: refractive index (other wavelength) (dimensionless); xn = mol fraction of the nth substance listed
Details: 293.15 K, 101 kPa, Liquid, Standard Abbe refractometry

CC(C)OC(C)C [diisopropyl ether] + CO
refractive index
Details	Wavelength=40.47 nm	Wavelength=435.8 nm	Wavelength=486.1 nm	Wavelength=546.1 nm
x2 = 0	1.37888 ± 0.00043	1.37585 ± 0.00043	1.37241 ± 0.00043	1.36955 ± 0.00043
x2 = 0.0423	1.37892 ± 0.00043	1.37589 ± 0.00043	1.37246 ± 0.00043	1.3696 ± 0.00043
x2 = 0.0424	1.37884 ± 0.00043	1.37583 ± 0.00043	1.37238 ± 0.00043	1.36953 ± 0.00043
x2 = 0.082	1.37887 ± 0.00042	1.37585 ± 0.00042	1.37242 ± 0.00042	1.36956 ± 0.00042
x2 = 0.0822	1.37872 ± 0.00042	1.37569 ± 0.00042	1.37228 ± 0.00042	1.36942 ± 0.00042
x2 = 0.1171	1.37858 ± 0.00041	1.37556 ± 0.00041	1.37214 ± 0.00041	1.3693 ± 0.00041
x2 = 0.1271	1.37862 ± 0.00041	1.3756 ± 0.00041	1.37217 ± 0.00041	1.36933 ± 0.00041
x2 = 0.1827	1.37814 ± 0.0004	1.37514 ± 0.0004	1.37173 ± 0.0004	1.36889 ± 0.0004
x2 = 0.2162	1.37791 ± 0.0004	1.37492 ± 0.0004	1.37149 ± 0.0004	1.36867 ± 0.0004
x2 = 0.251	1.37812 ± 0.0004	1.37513 ± 0.00039	1.37172 ± 0.00039	–
x2 = 0.3298	1.37709 ± 0.00038	1.37411 ± 0.00038	1.37071 ± 0.00038	–
x2 = 0.3577	1.37556 ± 0.00038	1.37264 ± 0.00038	1.36925 ± 0.00038	–
x2 = 0.4497	1.37463 ± 0.00037	1.3717 ± 0.00037	1.36834 ± 0.00037	–
x2 = 0.4525	1.37517 ± 0.00037	1.37223 ± 0.00037	1.36886 ± 0.00037	–
x2 = 0.522	1.37278 ± 0.00036	1.36987 ± 0.00036	1.36658 ± 0.00036	–
x2 = 0.5543	1.37252 ± 0.00035	1.36963 ± 0.00035	1.36633 ± 0.00035	–
x2 = 0.609	1.36927 ± 0.00035	1.3664 ± 0.00035	1.36316 ± 0.00035	–
x2 = 0.6529	1.36767 ± 0.00034	1.36484 ± 0.00034	1.36161 ± 0.00034	–
x2 = 0.7504	1.36362 ± 0.00033	1.36086 ± 0.00033	1.35769 ± 0.00033	–
x2 = 0.804	1.35916 ± 0.00033	1.35647 ± 0.00033	1.35338 ± 0.00033	–
x2 = 0.807	1.35902 ± 0.00033	1.35632 ± 0.00033	1.35323 ± 0.00033	–
x2 = 0.8727	1.35351 ± 0.00032	1.35088 ± 0.00032	1.34784 ± 0.00032	–
x2 = 0.9233	1.34636 ± 0.00033	1.34384 ± 0.00033	1.34087 ± 0.00033	–
x2 = 0.9253	1.34824 ± 0.00033	1.34571 ± 0.00033	1.34275 ± 0.00033	–
x2 = 0.9527	1.34496 ± 0.00032	1.34296 ± 0.00032	1.33953 ± 0.00032	–
x2 = 0.9773	1.34138 ± 0.00032	1.33894 ± 0.00032	1.33601 ± 0.00032	–
x2 = 0.989	1.34018 ± 0.00032	1.33775 ± 0.00032	1.33487 ± 0.00032	–
x2 = 0.9964	1.33872 ± 0.00032	1.33631 ± 0.00032	1.33342 ± 0.00032	–

— the NIST ThermoML archive (doi:10.1016/j.fluid.2014.09.014)
